ChEMBL document CHEMBL1155831, “The structural basis for peptidomimetic inhibition of eukaryotic ribonucleotide reductase: a conformationally flexible pharmacophore” (J Med Chem, 2008)

Assay: Inhibition of Saccharomyces cerevisiae ribonucleotide reductase

| Substance | IC50 |
| --- | --- |
| H-FTFNEDF-OH | 44 µM |
| H-NFDDDF-OH | 30 µM |
